In patent US7217776B1, “pH-sensitive methacrylic copolymer gels and the production thereof” (Iowa State University Research Foundation, priority 2003, dated 2007):

System: NIH/3T3 mouse fibroblasts
Experiment: Cytotoxicity elution test
Assay type: cell-based
Conditions: 24 hours incubation; 3 mg/L, 0.3 mg/L and 0.03 mg/L
Method: Elution tests were performed on one sample of the pentablock material to assess the cytotoxic properties of the pentablock copolymers. Approximately 30 mg of the polymers to be tested were dissolved in 100 ml of low-glucose Dulbecco's modified eagle medium (DMEM, Sigma) with 10% fetal bovine serum (FBS, Sigma), 10 μg/ml insulin (Sigma), 10 units/ml penicillin/streptomycin (Sigma), and 100 μg/ml L-ascorbic acid (Sigma). This solution was diluted to achieve the desired polymer concentration for all tests.
NIH/3T3 mouse fibroblasts were grown in polystyrene flasks until reaching confluence at 150 cells/mm. The growth media was removed from the flasks and replaced with one of the following: DMEM (negative control), DMEM with phenol (positive control), DMEM with the pentablock material. The concentrations of the pentablock material and phenol were 3 mg/L, 0.3 mg/L and 0.03 mg/L.
After 24 hours of incubation in a humidified incubator with 5% CO2 at 37° C. the samples were removed and the media was replaced with Kamovsky's fixative (2.5% glutaraldehyde, 2.0% paraformaldehyde, 0.1M sodium cacodylate) for 12 hours. The samples were then stained with a 20% crystal violet dye (CVD) solution in ethanol for 6 hours followed by dehydration with ethanol. […]

Oc1ccccc1 [phenol]
cytotoxic response (cell density, morphology, adherence relative to controls): result expected for a cytotoxic material
